The results in this text go back to ChEMBL document CHEMBL4627305, “3,3-Difluoro-3,4,5,6-tetrahydropyridin-2-amines: Potent and permeable BACE-1 inhibitors” (Bioorg Med Chem Lett, 2020).

Series [1] concerns the target T1, Beta-secretase 1 (Homo sapiens, UniProt P56817). The experiment in a line: Inhibition of BACE1 (unknown origin).
The target of series [2] is T1, Beta-secretase 1. Description: Inhibition of BACE1 (unknown origin) assessed as reduction in Abeta42 level by cell based assay.
Series [3] deals with T2, Beta-secretase 2 (Homo sapiens, UniProt Q9Y5Z0).
T2 sequence (Q9Y5Z0 whole entry): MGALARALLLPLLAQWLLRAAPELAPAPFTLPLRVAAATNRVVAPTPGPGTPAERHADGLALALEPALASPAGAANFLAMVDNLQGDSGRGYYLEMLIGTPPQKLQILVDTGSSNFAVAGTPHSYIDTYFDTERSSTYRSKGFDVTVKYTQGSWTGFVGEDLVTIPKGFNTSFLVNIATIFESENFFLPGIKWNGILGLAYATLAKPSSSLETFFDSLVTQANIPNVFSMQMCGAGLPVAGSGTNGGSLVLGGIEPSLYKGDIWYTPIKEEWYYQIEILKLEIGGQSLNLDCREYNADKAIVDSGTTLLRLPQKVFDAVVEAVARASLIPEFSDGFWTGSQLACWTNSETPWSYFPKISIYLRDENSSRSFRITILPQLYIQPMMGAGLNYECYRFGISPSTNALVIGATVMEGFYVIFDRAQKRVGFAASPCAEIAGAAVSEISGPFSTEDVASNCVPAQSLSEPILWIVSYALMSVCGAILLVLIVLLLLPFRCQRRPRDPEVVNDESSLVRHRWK
The experiment in a line: Inhibition of BACE2 (unknown origin).

The species entered for series [4] is Homo sapiens. The experiment in a line: Selectivity index, ratio of IC50 for BACE2 (unknown origin) to IC50 for BACE1 (unknown origin).
Series [5] in a line: Efflux ratio of apparent permeability across basolateral to apical over apical to basolateral side in MDCK cells. Type of series: ADME, cell-based, Canis lupus familiaris. The conditions noted are these: dog.
Series [6] can be described thus: Dissociation constant, pKa of the compound. In kind it is physicochemical.
The nature of series [7]: Metabolic stability in human liver microsomes assessed as intrinsic clearance. Type of series: ADME, Microsome. The conditions noted are these: read-out: CLH. Background: Microsomes from liver hold many membrane-bound enzymes, among them those of drug oxidation.
Series [8] in a line: Metabolic stability in dog liver microsomes assessed as intrinsic clearance. Type of series: ADME, Canis lupus familiaris, Microsome. The conditions noted are these: read-out: CLH.
The target of series [9] is Cytochrome P450 2D6 (Homo sapiens, UniProt P10635). The experiment in a line: Inhibition of CYP2D6 (unknown origin). In kind it is ADME.
The target in series [10] is Voltage-gated inwardly rectifying potassium channel KCNH2 (Homo sapiens, UniProt Q12809). Description: Inhibition of human ERG.
Sequence of Voltage-gated inwardly rectifying potassium channel KCNH2 (Q12809 whole entry): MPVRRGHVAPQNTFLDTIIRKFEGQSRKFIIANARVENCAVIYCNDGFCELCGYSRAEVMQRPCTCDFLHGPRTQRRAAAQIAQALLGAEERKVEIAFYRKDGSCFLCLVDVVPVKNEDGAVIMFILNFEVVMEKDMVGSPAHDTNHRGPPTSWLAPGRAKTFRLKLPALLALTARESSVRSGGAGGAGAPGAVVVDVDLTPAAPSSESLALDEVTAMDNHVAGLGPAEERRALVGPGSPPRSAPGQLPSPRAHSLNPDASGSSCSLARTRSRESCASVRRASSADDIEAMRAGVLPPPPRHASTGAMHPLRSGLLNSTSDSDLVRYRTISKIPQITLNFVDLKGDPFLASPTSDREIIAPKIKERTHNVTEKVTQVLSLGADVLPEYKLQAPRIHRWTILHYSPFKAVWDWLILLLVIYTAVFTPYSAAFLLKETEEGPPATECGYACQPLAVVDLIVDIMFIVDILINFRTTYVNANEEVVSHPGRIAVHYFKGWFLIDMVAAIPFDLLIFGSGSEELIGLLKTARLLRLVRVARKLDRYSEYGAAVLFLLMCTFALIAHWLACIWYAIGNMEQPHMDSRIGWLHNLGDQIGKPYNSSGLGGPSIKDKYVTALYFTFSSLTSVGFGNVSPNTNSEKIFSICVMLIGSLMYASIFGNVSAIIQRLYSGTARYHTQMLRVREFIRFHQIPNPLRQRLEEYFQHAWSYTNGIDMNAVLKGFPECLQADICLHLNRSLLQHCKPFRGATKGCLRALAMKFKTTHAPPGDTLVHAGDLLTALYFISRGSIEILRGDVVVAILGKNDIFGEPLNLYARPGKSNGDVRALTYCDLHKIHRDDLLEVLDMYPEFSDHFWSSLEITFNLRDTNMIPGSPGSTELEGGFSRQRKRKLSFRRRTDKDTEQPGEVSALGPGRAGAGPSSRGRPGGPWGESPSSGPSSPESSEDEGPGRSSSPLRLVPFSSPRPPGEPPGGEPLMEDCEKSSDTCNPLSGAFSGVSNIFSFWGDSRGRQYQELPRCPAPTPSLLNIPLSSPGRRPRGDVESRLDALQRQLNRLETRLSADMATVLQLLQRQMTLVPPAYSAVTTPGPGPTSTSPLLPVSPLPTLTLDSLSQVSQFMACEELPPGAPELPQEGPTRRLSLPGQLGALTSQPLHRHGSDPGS

Sequence of Cytochrome P450 2D6 (P10635 whole entry): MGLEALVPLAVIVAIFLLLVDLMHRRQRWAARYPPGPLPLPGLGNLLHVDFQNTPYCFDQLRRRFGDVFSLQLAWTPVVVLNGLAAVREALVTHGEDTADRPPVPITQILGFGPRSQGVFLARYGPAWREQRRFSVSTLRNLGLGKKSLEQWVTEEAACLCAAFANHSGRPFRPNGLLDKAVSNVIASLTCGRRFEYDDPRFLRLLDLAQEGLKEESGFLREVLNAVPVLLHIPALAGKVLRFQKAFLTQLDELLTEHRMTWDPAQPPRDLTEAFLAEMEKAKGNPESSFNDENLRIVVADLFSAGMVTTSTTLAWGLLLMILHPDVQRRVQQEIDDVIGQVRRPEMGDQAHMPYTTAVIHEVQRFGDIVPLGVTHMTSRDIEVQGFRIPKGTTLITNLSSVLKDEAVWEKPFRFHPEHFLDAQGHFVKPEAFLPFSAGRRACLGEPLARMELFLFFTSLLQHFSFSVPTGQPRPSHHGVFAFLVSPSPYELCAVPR
T1 sequence (P56817 whole entry): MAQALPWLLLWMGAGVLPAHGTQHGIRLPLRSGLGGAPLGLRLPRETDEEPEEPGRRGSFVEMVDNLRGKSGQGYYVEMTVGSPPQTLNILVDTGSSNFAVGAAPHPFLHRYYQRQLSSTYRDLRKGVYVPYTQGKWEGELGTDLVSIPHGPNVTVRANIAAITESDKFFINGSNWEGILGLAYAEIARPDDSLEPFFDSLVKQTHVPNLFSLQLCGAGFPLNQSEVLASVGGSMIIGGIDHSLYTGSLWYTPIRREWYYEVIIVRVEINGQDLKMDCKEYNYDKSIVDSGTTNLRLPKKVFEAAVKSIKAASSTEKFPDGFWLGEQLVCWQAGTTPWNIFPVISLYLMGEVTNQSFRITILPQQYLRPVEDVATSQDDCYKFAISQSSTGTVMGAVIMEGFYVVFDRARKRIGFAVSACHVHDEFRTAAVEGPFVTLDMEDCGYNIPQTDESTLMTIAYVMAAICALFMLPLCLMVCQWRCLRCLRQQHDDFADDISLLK

Consider `C[C@H]1C[C@H]2CC(F)(F)C(N)=N[C@@]2(c2cc(NC(=O)c3cnc(OCF)cn3)ccc2F)CO1`, for which the IC50 in [1] is 1.5 nM; in series [2] it was 3.5 nM; in series [3] it was 6.8 nM; in [9] it was greater than 10000 nM; in [10], greater than 10000 nM. In series [4], the Ratio IC50 is 4.5. The efflux ratio in [5] is 5. In addition, the pKa in series [6] was found to be 6.6. Besides, the microsomal CLint in series [7] is 119 µL/min/mg; in series [8], 18.6 µL/min/mg.

With `NC1=N[C@](CF)(c2cc(NC(=O)c3cnc(OCF)cn3)ccc2F)CCC1(F)F`, the IC50 in [1] amounted to 8.9 nM; in [2], 93.3 nM; in series [3], 138 nM. This compound also displayed a pKa in [6] of 6.3. Also, the microsomal CLint in series [7] and in [8] was less than 7.7 µL/min/mg throughout.

On to `NC1=N[C@@]2(c3cc(NC(=O)c4cnc(OCF)cn4)ccc3F)CO[C@@H](CF)C[C@H]2CC1(F)F`, for which the IC50 in [1] was 2.5 nM; in series [2], 4.8 nM; in series [3], 8.9 nM; in series [9], greater than 10000 nM; in series [10], greater than 10000 nM. For the same compound, the Ratio IC50 in series [4] came out at 3.6. The efflux ratio in series [5] came to 12. The same compound registered a pKa in series [6] of 6.4. In addition, the microsomal CLint in [7] was 24.9 µL/min/mg; in series [8] it was less than 7.7 µL/min/mg.

As for `C[C@@]1(c2cc(NC(=O)c3cnc(OCF)cn3)ccc2F)CCC(F)(F)C(N)=N1`, the IC50 in [1] is 11.5 nM; in [2], 16.2 nM; in series [3], 126 nM; in series [9], 1000 nM; in series [10], greater than 10000 nM. For the same compound, in series [4], the Ratio IC50 is 11. Also, the efflux ratio in series [5] came out at 2.1. Further, the pKa in series [6] was determined as 7.6. In addition, the microsomal CLint in series [7] was found to be 10.1 µL/min/mg; in series [8] it was 10.2 µL/min/mg.

As to `NC1=N[C@@]2(c3cc(NC(=O)c4cnc(OCF)cn4)ccc3F)CCOC[C@H]2CC1(F)F` (racemic), the IC50 in [1] is 79.4 nM; in series [2], 170 nM; in [3], 1070 nM; in series [9], greater than 10000 nM; in [10], greater than 10000 nM. In addition, the Ratio IC50 in series [4] is 13.5. The efflux ratio in [5] was 8.4. For the same compound, the pKa in series [6] stood at 6.7. The microsomal CLint in series [7] was 35.3 µL/min/mg; in [8] it was 11.8 µL/min/mg.

For `NC1=N[C@@]2(c3cc(NC(=O)c4cnc(OCF)cn4)ccc3F)COCC[C@H]2CC1(F)F` (racemic), the IC50 is 3.5 nM in series [1]; 7.1 nM in series [2]; 10.2 nM in [3]; greater than 10000 nM in series [9]; greater than 10000 nM in series [10]. In addition, the Ratio IC50 in series [4] was 3. The efflux ratio in series [5] was 4.7. Besides, the pKa in series [6] came to 6.6. The values for the microsomal CLint in series [7] and in series [8] were 46.2 µL/min/mg and 15.5 µL/min/mg, respectively.

A word on the IC50: it is the midpoint of a concentration-inhibition curve. Usually efflux ratio stands for the permeability from basolateral to apical divided by that in the opposite direction, in the common usage. Usually pKa stands for the pH at which an ionisable group is half protonated. A high value points to a weaker acid or stronger base.
